In patent US20240189242A1, “LIPID NANOPARTICLE COMPOSITIONS AND METHODS OF FORMULATING THE SAME” (MODERNATX, INC., priority 2021, published 2024):
One block for each compound: values may come before it.

What was measured:
Format in all cases: physicochemical
RNA [1] = test: percentage of IG in binary mixtures of RNA and ionizable lipid, ion pair reversed phase HPLC; conditions: for levels of IG: binary mixtures of RNA and Compound III with 1 mM agent, versus control; for initial rate of IG formation: Compound III binaries with 5 mM agent (FIG. 15)
Source text: To detect and quantify the amount of IG present in LNP formulations comprising polynucleotides and lipid, a protocol was developed (FIG. 2) that included (1) extraction of the polynucleotide molecules (e.g. precipitation, liquid:liquid extraction); (2) assessment of integrity (e.g. purity, length) of the isolated polynucleotides by known methods (e.g. fragment analyzer, gel electrophoresis); and (3) analysis of the isolated polynucleotides by HPLC.
(§1) RNA was extracted from the LNP formulation by precipitation in ammonium acetate in isopropanol; resuspended in water to target a final RNA concentration of 0.1 mg/mL; and assessed by fragment analyzer capillary electrophoresis and ion pair reversed phase HPLC (performed on a Thermo DNApac RP 100×2.1 mm column at 65° C., with mobile phases containing 50 mM dibutylammonium acetate and 100 mM triethylammonium acetate in water and acetonitrile). Elution with an acetonitrile gradient provided an RNA separation primarily driven by mRNA length and sensitive to any added hydrophobic elements. Two prominent peaks were apparent on the HPLC chromatogram (FIG. 2), including a “main peak” comprising non-adduct mRNA and an “IG” peak comprising mRNA with one or more covalent modifications. The mass fraction of RNA containing at least one lipid adduct was determined by integrating the area under the curve (AUC) of all RNA peaks (including products shorter than the full-length product, the full-length product, and the hydrophobic modified RNA) and taking the late-eluting region as an area percent of the total peak area.
Compound III was dissolved in ethanol at a concentration of 4 mg/mL, and the RNA diluted in sodium acetate buffer pH 5.5; the RNA and lipids were then mixed in 25% ethanol. Samples were held at 25° C., and the RNA was periodically extracted by precipitation in isopropanol and analyzed by ion pair reversed phase (FIGS. 5 and 6A, data marked by *).

RNA [2] = test: as above
RNA [3] = test: percentage of IG in LNPs buffered with PBS or Tris, HPLC
Procedure: as §1
To determine if different buffering conditions confer reductions in the percentage of IG formed in binary mixtures of RNA and Compound III, binary mixtures were prepared with RNA and Compound III and buffered with PBS or Tris at and the percentage of IG in the resulting binary mixtures was quantified according to the protocol detailed in Example 1. In brief, a single batch of LNPs was split mid-process into four aliquots, two of which were prepared in a final buffer of 1×PBS and the other two of which were prepared in a final buffer of 100 mM Tris-HCl pH 7.4. […]
To determine if different buffering conditions confer reductions in the percentage of IG formed in binary mixtures of RNA and Compound VI, binary mixtures were prepared with RNA and Compound VI and buffered PBS or Tris at and the percentage of IG in the resulting binary mixtures was quantified according to the protocol detailed in Example 1.

SMILES: CCCCCCCCCCCOC(=O)CCCCCN(CCO)CCCCCCCC(=O)OC(CCCCCCCC)CCCCCCCC [Compound III]
IG formation over time (RNA [1]; chromatographically purified Compound III (up to 99% purity, no detectable Compound III-N-oxide) and RNA): still formed IG over time
IG (RNA [1]; control binary mixtures of RNA and Compound III (Example 6), 25° C., after 3 days): ~35%
IG detected (RNA [1]; control binary mixtures of RNA and Compound III (Example 11), 25° C., after 18 hours): ~20%
percentage of IG over time (RNA [2]; binary mixtures with RNA): increased over time
IG (RNA [2]; control binary mixtures of RNA and Compound III (Example 5), after 0 days): ~10%
IG (RNA [2]; control binary mixtures of RNA and Compound III (Example 5), after 5 days): ~40%
IG (RNA [2]; control binary mixtures of RNA and Compound III (Example 5), after 25 days): ~45%
IG (RNA [2]; control binary mixtures of RNA and Compound III (Example 6), 25° C., after 1 day): ~15%
IG (RNA [2]; control binary mixtures of RNA and Compound III (Example 6), 25° C., after 7 days): ~40%
IG detected (RNA [2]; control binary mixtures of RNA and Compound III (Example 7), 25° C., after 18 hours): ~35%
IG detected (RNA [2]; control binary mixtures of RNA and Compound III, after 13 days of incubation at 25° C.): ~45%
percentage IG detected (RNA [2]; mRNA and Compound III treated with higher concentrations of sodium metabisulfite (KDS), removed by dialysis with 20 mM Tris, t=0 h and 24 hours): reduced when treated with higher concentrations
percentage of IG over time (RNA [3]; Compound III LNPs buffered with Tris and stored either at 5° C. or 20° C.): around 10%
percentage of IG, Tris versus PBS (RNA [3]; Compound III LNPs, 100 mM Tris-HCl pH 7.4 (5° C., −20° C.) versus 1×PBS (5° C.)): lower in binary mixtures buffered with Tris compared to binary mixtures buffered with PBS

SMILES: CCCCCCCCCN(CCCCCCCCC)CCN(CCCCCCCCC)CC(=O)N1CCN(C(=O)CN(CCCCCCCCC)CCCCCCCCC)CC1 [Compound VI]
IG (RNA [2]; control binary mixtures of RNA and Compound VI, after 1 day): ~55%
IG (RNA [2]; control binary mixtures of RNA and Compound VI, after 2 days): ~70%
IG (RNA [2]; control binary mixtures of RNA and Compound VI, after 13 days): ~80%
percentage of IG, Tris versus PBS (RNA [3]; Compound VI LNPs stored at 5° C., 20 mM Tris, 8% sucrose, pH 8 versus 1×PBS, pH 7.2): lower in binary mixtures buffered with Tris compared to binary mixtures buffered with PBS

SMILES: Clc1ccc(C(c2ccc(Cl)cc2)C(Cl)(Cl)Cl)cc1 [DDT, dichlorodiphenyltrichloroethane]
levels of IG (RNA [1]; 25° C., after 18 hours): reduced levels of IG

SMILES: O[C@H](CS)[C@@H](O)CS [DTE, dithioerythritol]
levels of IG (RNA [1]; 25° C., after 18 hours): reduced levels of IG

SMILES: O=C(O)CCP(CCC(=O)O)CCC(=O)O [TCEP, tris(2-carboxyethyl)phosphine]
levels of IG (RNA [1]; 25° C., after 18 hours): reduced levels of IG

SMILES: O=S([O-])S(=O)(=O)[O-].[K+].[K+] [potassium metabisulfite]
initial rate of IG formation (RNA [1]): effective at eliminating the fast initial rate of IG formation
levels of IG (RNA [1]; 25° C., after 18 hours): reduced levels of IG

SMILES: O=S([O-])S(=O)(=O)[O-].[Na+].[Na+] [sodium metabisulfite]
initial rate of IG formation (RNA [1]): effective at eliminating the fast initial rate of IG formation

SMILES: O=C([O-])CS.[Na+] [sodium thioglycolate]
levels of IG (RNA [1]; 25° C., after 18 hours): reduced levels of IG

SMILES: O=S([O-])([O-])=S.[Na+].[Na+] [sodium thiosulfate]
levels of IG (RNA [1]; 25° C., after 18 hours): reduced levels of IG

Now from value to compound, other results behind:

levels of IG (RNA [1]; 25° C., after 18 hours): reduced levels of IG
SMILES: O=C(O)CCCC[C@@H]1CCSS1 (racemic) [lipoic acid]

levels of IG (RNA [1]; 25° C., after 18 hours): reduced levels of IG
SMILES: O[C@H](CS)[C@H](O)CS [DTT, dithiothreitol]

levels of IG (RNA [1]; 25° C., after 18 hours): reduced levels of IG
SMILES: CC(=O)N[C@@H](CS)C(=O)O [N-acetyl cysteine]
initial rate of IG formation (RNA [1]): effective at eliminating the fast initial rate of IG formation

levels of IG (RNA [1]; 25° C., after 18 hours): reduced levels of IG
SMILES: NCCSSCCN [cystamine]

levels of IG (RNA [1]; 25° C., after 18 hours): reduced levels of IG
SMILES: N[C@@H](CCC(=O)N[C@@H](CS)C(=O)NCC(=O)O)C(=O)O [glutathione]

levels of IG (RNA [1]; 25° C., after 18 hours): reduced levels of IG
SMILES: N[C@@H](CCS)C(=O)O [homo cysteine, homocysteine]

levels of IG (RNA [1]; 25° C., after 18 hours): reduced levels of IG
SMILES: [BH4-].[Na+] [sodium borohydrate]
